The results in this text go back to ChEMBL document CHEMBL1139073, “Inhibition of Src kinase activity by 7-ethynyl-4-phenylamino-3-quinolinecarbonitriles: identification of SKS-927” (Bioorg Med Chem Lett, 2007).

The structures appear in SMILES notation. pIC50: −log10 of the molar value. Converted amounts (≈) assume the structure as drawn. Some results are limits rather than exact numbers.

The pIC50 is the negative decadic logarithm of the IC50, by convention in mol/L. Read a high pIC50 as a low IC50. A word on the solubility: it is the concentration that dissolves in the medium under given conditions.

Data set [1] deals with Proto-oncogene tyrosine-protein kinase Src (Homo sapiens, UniProt P12931). In words: Inhibition of Src activity. The data set is classed as functional.
Proto-oncogene tyrosine-protein kinase Src (Homo sapiens, UniProt P12931), sequence (P12931 2-536 limits assumed): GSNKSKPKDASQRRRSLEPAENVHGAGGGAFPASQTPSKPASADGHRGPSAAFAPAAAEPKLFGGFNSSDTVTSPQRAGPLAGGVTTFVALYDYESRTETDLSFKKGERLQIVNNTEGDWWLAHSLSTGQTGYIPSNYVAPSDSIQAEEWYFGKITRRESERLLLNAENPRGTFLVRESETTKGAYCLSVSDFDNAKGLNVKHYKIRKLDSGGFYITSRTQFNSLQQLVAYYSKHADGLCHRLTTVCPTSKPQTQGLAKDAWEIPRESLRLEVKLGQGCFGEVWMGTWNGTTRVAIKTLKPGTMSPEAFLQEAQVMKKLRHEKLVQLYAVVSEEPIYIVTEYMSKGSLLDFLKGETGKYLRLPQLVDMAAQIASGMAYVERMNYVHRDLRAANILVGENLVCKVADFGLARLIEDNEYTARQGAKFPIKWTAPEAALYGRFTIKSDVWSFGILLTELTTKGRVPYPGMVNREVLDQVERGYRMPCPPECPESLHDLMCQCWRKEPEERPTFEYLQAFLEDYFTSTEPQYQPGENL
Data set [2] has as its target Proto-oncogene tyrosine-protein kinase Src (Rattus norvegicus, UniProt Q9WUD9). In words: Inhibition of Src in rat fibroblasts.
For data set [3], the target named is Epidermal growth factor receptor (Homo sapiens, UniProt P00533).
Epidermal growth factor receptor, sequence (P00533 whole entry): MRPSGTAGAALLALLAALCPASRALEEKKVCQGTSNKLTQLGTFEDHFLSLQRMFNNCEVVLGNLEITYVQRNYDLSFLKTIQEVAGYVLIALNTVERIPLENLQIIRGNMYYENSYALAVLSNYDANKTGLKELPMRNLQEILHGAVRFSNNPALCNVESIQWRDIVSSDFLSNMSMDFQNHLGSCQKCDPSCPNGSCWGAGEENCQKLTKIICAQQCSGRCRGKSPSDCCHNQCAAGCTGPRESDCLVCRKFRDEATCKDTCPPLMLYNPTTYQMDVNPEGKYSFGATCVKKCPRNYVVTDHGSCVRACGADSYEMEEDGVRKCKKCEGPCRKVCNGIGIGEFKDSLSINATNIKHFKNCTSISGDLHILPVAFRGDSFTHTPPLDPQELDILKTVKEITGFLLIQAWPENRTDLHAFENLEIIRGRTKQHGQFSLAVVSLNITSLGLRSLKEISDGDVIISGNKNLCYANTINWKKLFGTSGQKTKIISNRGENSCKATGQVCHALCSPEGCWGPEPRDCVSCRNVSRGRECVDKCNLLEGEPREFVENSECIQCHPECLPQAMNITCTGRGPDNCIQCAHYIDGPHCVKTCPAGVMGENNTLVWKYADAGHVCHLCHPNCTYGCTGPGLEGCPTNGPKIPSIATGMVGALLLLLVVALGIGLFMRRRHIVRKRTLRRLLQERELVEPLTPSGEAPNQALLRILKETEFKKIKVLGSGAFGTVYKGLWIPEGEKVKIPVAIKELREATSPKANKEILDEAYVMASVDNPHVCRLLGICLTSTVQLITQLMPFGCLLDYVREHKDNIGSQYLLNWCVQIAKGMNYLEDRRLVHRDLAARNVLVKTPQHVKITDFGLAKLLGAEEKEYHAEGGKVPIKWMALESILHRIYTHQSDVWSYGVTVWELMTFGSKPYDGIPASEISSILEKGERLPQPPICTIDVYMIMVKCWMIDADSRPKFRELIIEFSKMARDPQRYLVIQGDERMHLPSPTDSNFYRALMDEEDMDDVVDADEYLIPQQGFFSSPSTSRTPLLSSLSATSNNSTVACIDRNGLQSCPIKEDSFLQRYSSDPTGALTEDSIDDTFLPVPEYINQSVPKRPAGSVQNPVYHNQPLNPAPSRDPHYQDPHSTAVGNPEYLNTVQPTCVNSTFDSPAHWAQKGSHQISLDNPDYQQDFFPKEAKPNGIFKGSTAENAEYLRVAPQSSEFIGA
Data set [4] has as its target Cyclin-dependent kinase 4 (Homo sapiens, UniProt P11802). Kind of data set: Inhibition of CDK4.
Data set [5] can be described thus: Permeability across artificial membrane by PAMPA. The data set is classed as ADME. As to conditions: read-out: permeability. In general terms: The PAMPA barrier holds no transporters, so it reflects passive diffusion.
Data set [6] can be described thus: Inhibition of IGFR. Details: species or system Homo sapiens.
The nature of data set [7]: Solubility at neutral pH. Format: physicochemical.
Data set [8] addresses RAC-alpha serine/threonine-protein kinase (Homo sapiens, UniProt P31749). Kind of data set: Inhibition of AKT.
Data set [9] is described as follows: Solubility at pH 4.5. Format: physicochemical. As to conditions: buffer.
Data set [10] deals with Vascular endothelial growth factor receptor 2 (Homo sapiens, UniProt P35968). In words: Inhibition of KDR.
Vascular endothelial growth factor receptor 2, sequence (P35968 whole entry): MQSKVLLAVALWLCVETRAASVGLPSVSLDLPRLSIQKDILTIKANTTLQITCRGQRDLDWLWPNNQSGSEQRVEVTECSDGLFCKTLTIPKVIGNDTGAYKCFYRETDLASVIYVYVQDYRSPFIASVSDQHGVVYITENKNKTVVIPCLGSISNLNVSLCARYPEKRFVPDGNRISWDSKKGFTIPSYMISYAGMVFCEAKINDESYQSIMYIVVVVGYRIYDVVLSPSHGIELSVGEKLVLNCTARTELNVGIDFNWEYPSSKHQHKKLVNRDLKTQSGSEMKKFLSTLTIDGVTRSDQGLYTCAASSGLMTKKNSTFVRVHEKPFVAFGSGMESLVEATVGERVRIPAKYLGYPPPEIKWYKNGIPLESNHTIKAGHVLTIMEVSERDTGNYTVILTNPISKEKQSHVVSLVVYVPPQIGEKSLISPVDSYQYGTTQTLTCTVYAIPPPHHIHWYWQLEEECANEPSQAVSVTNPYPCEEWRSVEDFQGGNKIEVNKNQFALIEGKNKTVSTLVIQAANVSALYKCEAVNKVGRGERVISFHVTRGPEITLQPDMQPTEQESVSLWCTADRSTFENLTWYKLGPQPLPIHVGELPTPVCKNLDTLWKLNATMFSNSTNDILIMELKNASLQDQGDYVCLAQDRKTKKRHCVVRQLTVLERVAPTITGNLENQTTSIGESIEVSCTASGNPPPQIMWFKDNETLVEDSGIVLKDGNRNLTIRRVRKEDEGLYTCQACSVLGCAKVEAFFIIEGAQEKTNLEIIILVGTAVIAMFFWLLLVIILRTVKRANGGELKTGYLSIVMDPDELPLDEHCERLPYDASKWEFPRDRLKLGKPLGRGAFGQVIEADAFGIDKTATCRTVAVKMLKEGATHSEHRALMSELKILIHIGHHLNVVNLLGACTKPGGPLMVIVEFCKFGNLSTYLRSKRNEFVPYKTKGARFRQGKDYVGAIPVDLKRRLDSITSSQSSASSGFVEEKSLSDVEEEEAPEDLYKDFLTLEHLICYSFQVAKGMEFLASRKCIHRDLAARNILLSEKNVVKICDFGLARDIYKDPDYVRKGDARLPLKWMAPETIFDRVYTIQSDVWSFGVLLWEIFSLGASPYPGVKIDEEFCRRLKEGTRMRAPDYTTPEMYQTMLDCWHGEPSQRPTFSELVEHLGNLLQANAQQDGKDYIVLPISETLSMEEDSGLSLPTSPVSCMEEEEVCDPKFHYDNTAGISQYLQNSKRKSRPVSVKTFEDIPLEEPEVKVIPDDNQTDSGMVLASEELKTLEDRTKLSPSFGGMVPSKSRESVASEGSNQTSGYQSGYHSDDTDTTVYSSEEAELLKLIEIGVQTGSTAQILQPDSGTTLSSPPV

Proto-oncogene tyrosine-protein kinase Src (Rattus norvegicus, UniProt Q9WUD9), sequence (Q9WUD9 2-536 limits assumed): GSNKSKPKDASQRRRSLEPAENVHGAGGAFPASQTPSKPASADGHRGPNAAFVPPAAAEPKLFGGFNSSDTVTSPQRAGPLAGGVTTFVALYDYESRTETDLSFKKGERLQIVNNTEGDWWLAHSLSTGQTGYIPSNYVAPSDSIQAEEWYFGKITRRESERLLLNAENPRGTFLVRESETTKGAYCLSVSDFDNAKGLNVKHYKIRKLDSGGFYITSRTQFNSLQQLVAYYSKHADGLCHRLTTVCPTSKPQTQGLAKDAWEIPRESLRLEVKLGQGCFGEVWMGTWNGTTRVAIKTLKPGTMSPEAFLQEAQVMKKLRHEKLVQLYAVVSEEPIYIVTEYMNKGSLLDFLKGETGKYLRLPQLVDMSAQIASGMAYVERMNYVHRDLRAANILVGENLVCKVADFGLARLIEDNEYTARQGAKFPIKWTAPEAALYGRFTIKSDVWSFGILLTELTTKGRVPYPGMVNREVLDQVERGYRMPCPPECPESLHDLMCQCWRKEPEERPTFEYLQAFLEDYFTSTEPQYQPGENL
Cyclin-dependent kinase 4, sequence (P11802 whole entry, the tested form may be a part): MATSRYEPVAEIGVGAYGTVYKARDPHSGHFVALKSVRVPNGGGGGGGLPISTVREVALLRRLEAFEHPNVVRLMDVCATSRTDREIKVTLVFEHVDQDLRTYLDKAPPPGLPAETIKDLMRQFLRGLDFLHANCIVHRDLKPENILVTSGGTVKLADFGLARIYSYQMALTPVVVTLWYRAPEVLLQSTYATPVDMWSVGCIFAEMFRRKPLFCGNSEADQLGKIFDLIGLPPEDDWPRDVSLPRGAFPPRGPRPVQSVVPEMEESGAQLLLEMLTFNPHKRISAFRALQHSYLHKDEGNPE
RAC-alpha serine/threonine-protein kinase, sequence (P31749 whole entry): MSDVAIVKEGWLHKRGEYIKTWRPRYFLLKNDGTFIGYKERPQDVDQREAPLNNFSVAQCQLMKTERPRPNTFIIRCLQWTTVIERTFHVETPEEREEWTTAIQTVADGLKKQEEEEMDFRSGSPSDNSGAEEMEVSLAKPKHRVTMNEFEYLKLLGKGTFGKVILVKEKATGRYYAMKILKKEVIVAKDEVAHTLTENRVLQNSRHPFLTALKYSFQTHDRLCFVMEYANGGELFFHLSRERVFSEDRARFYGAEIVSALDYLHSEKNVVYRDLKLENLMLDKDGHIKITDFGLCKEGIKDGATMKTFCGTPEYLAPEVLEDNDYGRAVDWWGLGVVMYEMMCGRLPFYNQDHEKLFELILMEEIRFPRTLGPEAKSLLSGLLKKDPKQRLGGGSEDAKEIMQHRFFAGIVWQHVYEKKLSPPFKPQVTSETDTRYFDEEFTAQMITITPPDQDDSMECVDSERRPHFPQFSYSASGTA

Turning to `COc1cc(Nc2c(C#N)cnc3cc(C#CCCN(C)C)c(OC)cc23)c(Cl)cc1Cl`, the figures for the pIC50 in data set [1] and in [2] were 8.31 and 6.60, respectively.
For the molecule `COc1cc2c(Nc3cc(OC)c(OC)c(OC)c3)c(C#N)cnc2cc1C#CCCN1CCN(C)CC1`, the values for the pIC50 in [1] and in [2] were 7.68 and 6.23, respectively.
Turning to `COc1cc(Nc2c(C#N)cnc3cc(C#CCCN4CCN(C)CC4)ccc23)cc(OC)c1OC`, the pIC50 is 6.66 in data set [1] and 5.68 in data set [2].
Turning to `COc1cc(Nc2c(C#N)cnc3cc(C#CCCN4CCOCC4)c(OC)cc23)c(Cl)cc1Cl`, in [2], the pIC50 was 6.72.
Turning to `COc1cc(Nc2c(C#N)cnc3cc(C#CCCN4CCNCC4)c(OC)cc23)c(Cl)cc1Cl`, the pIC50 was 8.27 in data set [1] and 6.28 in [2].
With `COc1cc(Nc2c(C#N)cnc3cc(C#CCCN4CCN(C)CC4)ccc23)c(Cl)cc1Cl`, the pIC50 in data set [1] is 7.55; in data set [2] it was 5.77.
As to `COc1cc2c(Nc3ccc(Cl)cc3Cl)c(C#N)cnc2cc1C#CCCN1CCN(C)CC1`, the pIC50 is 8.06 in data set [1] and 6.37 in data set [2].
For `CCOc1cc2c(Nc3cc(OC)c(Cl)cc3Cl)c(C#N)cnc2cc1C#CCCN1CCN(C)CC1`, the pIC50 is 8.39 in data set [1] and 6.89 in [2].
The corresponding values for `COc1cc(Nc2c(C#N)cnc3cc(C#CCN4CCN(C)CC4)c(OC)cc23)c(Cl)cc1Cl` are 7.96 and 6.13.
Regarding `COc1cc(Nc2c(C#N)cnc3cc(C#CCCN4CCN(C)CC4)c(OC)cc23)c(Cl)cc1Cl`, the pIC50 in [3] is 6.14; in [4], less than 5.30; in data set [6], less than 5.30; in [8], less than 5.30; in [1] it was 8.41; in [10], less than 5.30. This molecule also showed a pIC50 in data set [2] of 7.14. Besides, the Papp in [5] stood at 6.8 ×10⁻⁶ cm/s. The solubility was 5 µg/mL (≈ 9.53 µM) in data set [7] and greater than 100 µg/mL in data set [9].
Regarding `COc1cc(Nc2c(C#N)cnc3ccc(C#CCCN4CCN(C)CC4)cc23)c(Cl)cc1Cl`, the figures for the pIC50 in data set [1] and in data set [2] were 6.64 and 5.41, respectively.
